ChEMBL document CHEMBL1125648, “Quinazoline antifolates inhibiting thymidylate synthase: 4-thio-substituted analogues” (J Med Chem, 1991)

The compounds below were run on L1210 (assay: Growth inhibition of L1210 cells in culture). Conditions: Mus musculus.
Assay type: functional, cell-based

Row | SMILES | IC50 [µM]
1 | C#CCN(Cc1ccc2nc(C)nc(S)c2c1)c1ccc(C(=O)NC(CCC(=O)O)C(=O)O)cc1 (stereo not given) | 8
2 | CCN(Cc1ccc2ncnc(SC)c2c1)c1ccc(C(=O)NC(CCC(=O)O)C(=O)O)cc1 (stereo not given) | 15
3 | C#CCN(Cc1ccc2ncnc(S)c2c1)c1ccc(C(=O)NC(CCC(=O)O)C(=O)O)cc1 (stereo not given) | 7.4
4 | C#CCN(Cc1ccc2nc(N)nc(S)c2c1)c1ccc(C(=O)NC(CCC(=O)O)C(=O)O)cc1 (stereo not given) | 18
5 | CCN(Cc1ccc2ncnc(S)c2c1)c1ccc(C(=O)NC(CCC(=O)O)C(=O)O)cc1 (stereo not given) | 31
